US11986471B2, “Compounds and methods of use” (Tango Therapeutics, Inc., priority 2018, dated 2024)

Tests used:
HAP1 MTAP-intact = experiment: SDMA in-cell western assay, HAP1 MTAP-intact cell line; type: cell-based; details: Homo sapiens
How it was run: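 Symmetric dimethylarginine (SDMA) levels were measured by in-cell western in an isogenic HAP1 pair, one expressing endogenous MTAP and one MTAP-null, and IC50 values were derived for each line. Compounds whose IC50 ratio between the lines is 3-fold or more are classed as MTAP-selective.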

PRMT5 [1] = target: T1, PRMT5 (Homo sapiens, UniProt O14744); experiment: PRMT5 IC50 assay in the presence of SAM as cofactor; type: biochemical
T1 construct: purchased Viva (custom protein)
T1 sequence (O14744 whole entry): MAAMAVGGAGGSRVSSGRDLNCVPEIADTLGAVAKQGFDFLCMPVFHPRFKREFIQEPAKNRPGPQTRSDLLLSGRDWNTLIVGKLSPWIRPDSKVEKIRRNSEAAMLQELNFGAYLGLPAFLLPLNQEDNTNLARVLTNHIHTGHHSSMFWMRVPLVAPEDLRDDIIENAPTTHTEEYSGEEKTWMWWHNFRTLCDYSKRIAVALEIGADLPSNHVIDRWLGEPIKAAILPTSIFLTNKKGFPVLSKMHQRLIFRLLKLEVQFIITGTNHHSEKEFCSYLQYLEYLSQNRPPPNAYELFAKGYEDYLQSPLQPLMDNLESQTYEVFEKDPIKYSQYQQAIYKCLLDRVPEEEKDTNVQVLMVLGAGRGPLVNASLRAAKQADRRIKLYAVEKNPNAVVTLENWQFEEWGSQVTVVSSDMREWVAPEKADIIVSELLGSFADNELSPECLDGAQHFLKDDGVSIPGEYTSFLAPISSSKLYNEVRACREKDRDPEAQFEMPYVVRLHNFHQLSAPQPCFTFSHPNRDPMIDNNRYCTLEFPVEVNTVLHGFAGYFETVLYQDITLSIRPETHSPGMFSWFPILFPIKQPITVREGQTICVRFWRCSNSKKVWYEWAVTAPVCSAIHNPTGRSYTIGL
T1 sequence (Q9BQA1 whole entry partner): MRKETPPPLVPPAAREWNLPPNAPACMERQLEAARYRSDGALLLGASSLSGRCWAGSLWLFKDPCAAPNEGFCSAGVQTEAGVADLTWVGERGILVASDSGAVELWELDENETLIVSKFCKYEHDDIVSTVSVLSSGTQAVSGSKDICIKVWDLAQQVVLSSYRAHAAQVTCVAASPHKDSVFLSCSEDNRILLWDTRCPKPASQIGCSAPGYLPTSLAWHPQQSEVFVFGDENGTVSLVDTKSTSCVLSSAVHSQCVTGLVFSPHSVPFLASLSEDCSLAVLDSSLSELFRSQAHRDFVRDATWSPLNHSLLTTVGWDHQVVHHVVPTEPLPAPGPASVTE
How it was run: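 For the SAM-containing format, dividing IC50 by 1.5 yields Ki; for the MTA-containing format the divisor is 13.5. A third format without cofactor gives IC50 alone.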

HAP1 MTAP-deleted = experiment: SDMA in-cell western assay, HAP1 MTAP-deleted cell line; type: cell-based; details: for IC50: Homo sapiens, HAP1 MTAP-deleted cell line; for MTAP Intact/Deleted Ratio: IC50 ratio HAP1 MTAP-intact / HAP1 MTAP-deleted
How it was run: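 Symmetric dimethylarginine (SDMA) levels were measured by in-cell western in MTAP-null HAP1 cells, one half of an MTAP-isogenic pair whose partner line expresses endogenous MTAP. Compound potency is reported as IC50.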

PRMT5 [2] = target: T1, PRMT5; experiment: PRMT5 IC50 assay in the presence of MTA as cofactor; type: biochemical; details: for IC50: PRMT5, MTA as cofactor; for SAM/MTA Ratio: ratio between the Ki in the presence of SAM and the Ki in the presence of MTA
How it was run: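 Each compound is tested on PRMT5 in the presence of SAM, of MTA, and without any cofactor. Ki values are then back-calculated using fixed factors of 1.5 (SAM) and 13.5 (MTA), and the two Ki values are compared as a ratio.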

PRMT5 [3] = target: T1, PRMT5; experiment: PRMT5 IC50 assay with no cofactor; type: biochemical
How it was run: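 Cofactor-free, SAM and MTA formats; IC50 μM; Ki = IC50/1.5 for SAM, IC50/13.5 for MTA.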

Row | Structure (SMILES) | IC50 (HAP1 MTAP-intact) [nM] | IC50 (PRMT5 [1]) [nM] | IC50 (HAP1 MTAP-deleted) [nM] | IC50 (PRMT5 [2]) [nM] | IC50 (PRMT5 [3]) [nM] | MTAP Intact/Deleted Ratio (HAP1 MTAP-deleted) | SAM/MTA Ratio (PRMT5 [2])
1 | Cc1ncoc1COc1ccc2c(c1C)CCN(C[C@@H](O)CNC(=O)c1cc(NC3CCC3)ccn1)C2 [Compound 555, 4-(cyclobutylamino)-N-[(2S)-2-hydroxy-3-{5-methyl-6-[(4-methyl-1,3-oxazol-5-yl)methoxy]-1,2,3,4-tetrahydroisoquinolin-2-yl}propyl]pyridine-2-carboxamide] | ≥ 10000 | 50 to 500 | 1000 to 10000 | 50 to 500 | ≥ 5000 | C* (an IC50 ratio of less than 3 fold between the IC50 in the HAP1 MTAP-intact cell line and the HAP1 MTAP-deleted cell line) | A (a Ki ratio greater than or equal to 10 fold between the Ki in the presence of SAM and the Ki in the presence of MTA)
2 | CCCC(=O)N1CCC(Nc2cc(C(=O)NC[C@H](O)CN3CCc4c(ccc(OCc5cnco5)c4C)C3)ncn2)CC1 [Compound 560, 6-[(1-butanoylpiperidin-4-yl)amino]-N-[(2S)-2-hydroxy-3-{5-methyl-6-[(1,3-oxazol-5-yl)methoxy]-1,2,3,4-tetrahydroisoquinolin-2-yl}propyl]pyrimidine-4-carboxamide] | ≥ 10000 | 50 to 500 | 1000 to 10000 | 50 to 500 | 500 to 5000 | B* (an IC50 ratio greater than or equal to 3 fold but lower than 10 fold between the IC50 in the HAP1 MTAP-intact cell line and the HAP1 MTAP-deleted cell line) | A (a Ki ratio greater than or equal to 10 fold between the Ki in the presence of SAM and the Ki in the presence of MTA)
3 | O=C(NC[C@H](O)CN1CCc2cc(OCc3cnco3)ccc2C1)c1ccc2c(c1)CCN(C(=O)c1ccc(Br)cc1)C2 [Compound 561] | ≥ 10000 | 50 to 500 | 1000 to 10000 | 50 to 500 | 500 to 5000 | B* (an IC50 ratio greater than or equal to 3 fold but lower than 10 fold between the IC50 in the HAP1 MTAP-intact cell line and the HAP1 MTAP-deleted cell line) | A (a Ki ratio greater than or equal to 10 fold between the Ki in the presence of SAM and the Ki in the presence of MTA)
4 | CC(=O)N1CC(Nc2cc(C(=O)NC[C@H](O)CN3CCc4cc(OCc5ocnc5C)ccc4C3)nc(C(C)(C)C)n2)C1 [Compound 564, (S)-6-((1-acetylazetidin-3-yl)amino)-2-(tert-butyl)-N-(2-hydroxy-3-(6-((4-methyloxazol-5-yl)methoxy)-3,4-dihydroisoquinolin-2(1H)-yl)propyl)pyrimidine-4-carboxamide] | 1000 to 10000 | 50 to 500 | < 1000 | 50 to 500 | 500 to 5000 | B* (an IC50 ratio greater than or equal to 3 fold but lower than 10 fold between the IC50 in the HAP1 MTAP-intact cell line and the HAP1 MTAP-deleted cell line) | A (a Ki ratio greater than or equal to 10 fold between the Ki in the presence of SAM and the Ki in the presence of MTA)
5 | CC(=O)N1CC(Nc2cc(C(=O)NC[C@H](O)CN3CCc4cc(OCc5ocnc5C)ccc4C3)nc(C(C)C)n2)C1 [Compound 568, (S)-6-((1-acetylazetidin-3-yl)amino)-N-(2-hydroxy-3-(6-((4-methyloxazol-5-yl)methoxy)-3,4-dihydroisoquinolin-2(1H)-yl)propyl)-2-isopropylpyrimidine-4-carboxamide] | 1000 to 10000 | 50 to 500 | < 1000 | 50 to 500 | 500 to 5000 | C* (an IC50 ratio of less than 3 fold between the IC50 in the HAP1 MTAP-intact cell line and the HAP1 MTAP-deleted cell line) | A (a Ki ratio greater than or equal to 10 fold between the Ki in the presence of SAM and the Ki in the presence of MTA)
6 | CC(=O)N1CC(Nc2cc(C(=O)NC[C@H](O)CN3CCc4c(ccc(OCc5ocnc5C)c4C)C3)nc(C(C)(C)C)n2)C1 [Compound 569, (S)-6-((1-acetylazetidin-3-yl)amino)-2-(tert-butyl)-N-(2-hydroxy-3-(5-methyl-6-((4-methyloxazol-5-yl)methoxy)-3,4-dihydroisoquinolin-2(1H)-yl)propyl)pyrimidine-4-carboxamide] | ≥ 10000 | 50 to 500 | 1000 to 10000 | 50 to 500 | ≥ 5000 | B* (an IC50 ratio greater than or equal to 3 fold but lower than 10 fold between the IC50 in the HAP1 MTAP-intact cell line and the HAP1 MTAP-deleted cell line) | A (a Ki ratio greater than or equal to 10 fold between the Ki in the presence of SAM and the Ki in the presence of MTA)

Continued, in another order:

Row | IC50 (HAP1 MTAP-intact) [nM] | IC50 (PRMT5 [1]) [nM] | IC50 (HAP1 MTAP-deleted) [nM] | IC50 (PRMT5 [2]) [nM] | IC50 (PRMT5 [3]) [nM] | Structure (SMILES) | MTAP Intact/Deleted Ratio (HAP1 MTAP-deleted) | SAM/MTA Ratio (PRMT5 [2])
7 | < 1000 | 50 to 500 | < 1000 | 50 to 500 | 500 to 5000 | CC(=O)N1CCN(c2cc(C(=O)NC[C@H](O)CN3CCc4cc(OCc5ocnc5C)ccc4C3)cc(NC3CCC3)n2)CC1 [Compound 556, 2-(4-acetylpiperazin-1-yl)-6-(cyclobutylamino)-N-[(2S)-2-hydroxy-3-{6-[(4-methyl-1,3-oxazol-5-yl)methoxy]-1,2,3,4-tetrahydroisoquinolin-2-yl}propyl]pyridine-4-carboxamide] | B* (an IC50 ratio greater than or equal to 3 fold but lower than 10 fold between the IC50 in the HAP1 MTAP-intact cell line and the HAP1 MTAP-deleted cell line) | A (a Ki ratio greater than or equal to 10 fold between the Ki in the presence of SAM and the Ki in the presence of MTA)
8 | ≥ 10000 | 50 to 500 | 1000 to 10000 | 50 to 500 | 500 to 5000 | CC(=O)N1CCC(Nc2ccnc(C(=O)NC[C@H](O)CN3CCc4c(ccc(OCc5cnco5)c4C)C3)c2)CC1 [Compound 559] | C* (an IC50 ratio of less than 3 fold between the IC50 in the HAP1 MTAP-intact cell line and the HAP1 MTAP-deleted cell line) | A (a Ki ratio greater than or equal to 10 fold between the Ki in the presence of SAM and the Ki in the presence of MTA)
9 | 1000 to 10000 | 50 to 500 | 1000 to 10000 | 50 to 500 | 500 to 5000 | O=C(NC[C@H](O)CN1CCc2cc(OCc3cnco3)ccc2C1)c1ccnc(NC2CN(C(=O)C3CC3)C2)c1 [Compound 563, 2-[[1-(cyclopropanecarbonyl)azetidin-3-yl]amino]-N-[(2S)-2-hydroxy-3-[6-(oxazol-5-ylmethoxy)-3,4-dihydro-1H-isoquinolin-2-yl]propyl]pyridine-4-carboxamide] | C* (an IC50 ratio of less than 3 fold between the IC50 in the HAP1 MTAP-intact cell line and the HAP1 MTAP-deleted cell line) | A (a Ki ratio greater than or equal to 10 fold between the Ki in the presence of SAM and the Ki in the presence of MTA)
10 | ≥ 10000 | 50 to 500 | ≥ 10000 | 50 to 500 | 500 to 5000 | CC(C)N1CCN(c2cc(C(=O)NC[C@H](O)CN3CCc4c(ccc(OCc5cnco5)c4Cl)C3)cc(NC3CCC3)n2)CC1 [Compound 566] | C* (an IC50 ratio of less than 3 fold between the IC50 in the HAP1 MTAP-intact cell line and the HAP1 MTAP-deleted cell line) | A (a Ki ratio greater than or equal to 10 fold between the Ki in the presence of SAM and the Ki in the presence of MTA)
11 | ≥ 10000 | 50 to 500 | < 1000 | 50 to 500 | 500 to 5000 | CCC(=O)N1CCN(c2cc(C(=O)NC[C@H](O)CN3CCc4c(ccc(OCc5cnco5)c4Cl)C3)cc(NC3CCC3)n2)CC1 [Compound 570, (S)—N-(3-(5-chloro-6-(oxazol-5-ylmethoxy)-3N-dihydroisoquinolin-2(1H)-yl)-2-hydroxypropyl)-2-(cyclobutylamino)-6-(4-propionylpiperazin-1-yl)isonicotinamide] | A* (an IC50 ratio greater than or equal to 10 fold between the IC50 in the HAP1 MTAP-intact cell line and the HAP1 MTAP-deleted cell line) | A (a Ki ratio greater than or equal to 10 fold between the Ki in the presence of SAM and the Ki in the presence of MTA)
12 | ≥ 10000 | 50 to 500 | < 1000 | 50 to 500 | 500 to 5000 | O=C(NC[C@H](O)CN1CCc2c(ccc(OCc3cnco3)c2Cl)C1)c1cc(NC2CCC2)nc(N2CCN(C(=O)C3CC3)CC2)c1 [Compound 571, (S)—N-(3-(5-chloro-6-(oxazol-5-ylmethoxy)-3N-dihydroisoquinolin-2(1H)-yl)-2-hydroxypropyl)-2-(cyclobutylamino)-6-(4-(cyclopropanecarbonyl)piperazin-1-yl)isonicotinamide] | A* (an IC50 ratio greater than or equal to 10 fold between the IC50 in the HAP1 MTAP-intact cell line and the HAP1 MTAP-deleted cell line) | A (a Ki ratio greater than or equal to 10 fold between the Ki in the presence of SAM and the Ki in the presence of MTA)
